According to publication PMC8569681, “New Pyrimidine and Pyridine Derivatives as Multitarget Cholinesterase Inhibitors: Design, Synthesis, and In Vitro and In Cellulo Evaluation” (ACS Chemical Neuroscience, 2021):
Entries after “also recorded” stand apart in the source; their conditions may differ.

Tests used:
[1] = Antioxidant activity, DPPH spectrophotometric method; settings: for antioxidant activity (reaction with DPPH): DPPH about 25 μM, antioxidant 60 μM; for reaction time (time for reaching the plateau): DPPH, absorbance at 515 nm
Experimental: The antioxidant activity assays were carried out according to the 2,2-diphenyl-1-picrylhydrazyl (DPPH) spectrophotometric method.[34] Initially, to assess whether the compounds had antioxidant activity and to define the time required by each antioxidant to reach the steady state, the reduction in absorbance over time at 515 nm of a solution of DPPH mixed with the tested compound was recorded until reaching the plateau. […] The value of EC50 can be extrapolated by plotting the percentage of residual DPPH at the steady state as a function of the molar ratio of the antioxidant to initial DPPH.
2,2-Diphenyl-1-picrylhydrazyl (DPPH), MeOH, and ascorbic acid, used as the reference standard, were purchased from Sigma-Aldrich. Micropipettes Labmate (BRAND Dig. 10–100 μL; Dig. 100–1000 μL) and Transferpette (HIGH TECH LAB LM200: 20–200 μL; LM5000: 1000–5000 μL) were used to collect the samples. The assays were carried out by a double beam UV–vis Lambda 40 Perkin Elmer spectrophotometer using optical polystyrene cuvettes (10 × 10 × 45 mm, 340–800 nm optical transparency); each measure was repeated at least in triplicate. For data processing, UV-WIN Lab version 2.0 (Perkin Elmer Corporation) was used. The antioxidant activity of the tested compounds was evaluated by the DPPH method[34] based on the ability of antioxidant compounds to react with the stable radical DPPH, which has a maximum absorption at about 515 nm. Thus, by measuring the decrease in absorbance over time of DPPH solutions to which increasing amounts of the tested compound are added, the antioxidant activity of the compound can be determined.
[…]. To 2.90 mL of MeOH, 60 μL of a DPPH solution in MeOH (∼1.2 mM) and 40 μL of an antioxidant solution in MeOH (4.5 mM) were added to have in the cuvette concentrations of DPPH equal to about 25 μM and of antioxidant equal to 60 μM. The exact DPPH concentration was calculated through the Lambert–Beer relation, known the extinction coefficient of DPPH at 515 nm, equal to 1.25 × 10^4.[34] The absorbance was recorded until the plateau was reached.
. To obtain the initial DPPH concentration, 2.94 mL of MeOH and 60 μL of the DPPH solution in MeOH (∼1.2 mM) were placed in a polystyrene cuvette and the absorbance was recorded at 515 nm. The exact initial DPPH concentration was calculated through the Lambert–Beer relation. For subsequent measurements, the cuvettes were set up by introducing the opportune volume of MeOH to reach a total volume of 3 mL, 60 μL of the DPPH solution in MeOH (∼1.2 mM, to have a final concentration of ∼25 μM), and the appropriate volumes of the antioxidant stock solution in MeOH to have final concentrations between 1.5 and 12 μM for 20 and between 5 and 60 μM for 18 and 30; the absorbance was recorded at 515 nm at the plateau and then after 1 min for compound 20 and after 90 min for compounds 18 and 30. Each measure was repeated four times. With absorbance data, the percentages of residual DPPH at steady state were obtained using the following equation: [drawing 3] where Ac is the average of absorbance in the presence of antioxidant at plateau and A0 is the average of the initial absorbance of DPPH.
The same procedure was performed using ascorbic acid as the antioxidant at cuvette concentrations between 1.5 and 18 μM, recording the absorbance at 515 nm after 2 min from the preparation of the cuvettes.

[2] = test system: U-87 MG cell line; test: Cytotoxicity, MTT cell viability assay; settings: 24 h
Experimental: Data represent the absorbance % (± SD) relative to untreated cells in the same experiment and standardized to 100%. All data points were performed in triplicate and at least three independent experiments.
After an incubation time of 24 h, the medium was replaced by a new fresh medium containing 0.5 mg/mL MTT (Sigma, Deisenhofen, Germany). After 2 h at 37 °C in 5% CO2, unreacted dye was removed and cells were dissolved by DMSO (Merck, Darmstadt, Germany). Absorbance was read at 570 nm by a microtiter spectrophotometer plate reader. The data were expressed as absorbance relative to untreated cells in the same experiment and standardized to 100%. All data points were performed in triplicate and at least three independent experiments.

[3] = target: T1, Electrophorus electricus AChE (EeAChE) (Electrophorus electricus, UniProt O42275); test: biochemical; settings: 100 μM acetylthiocholine; read-out: EeAChE, IC50 ± SE
T1 construct: purchased Sigma-Aldrich (Milan, Italy)
T1 sequence (O42275 24-633): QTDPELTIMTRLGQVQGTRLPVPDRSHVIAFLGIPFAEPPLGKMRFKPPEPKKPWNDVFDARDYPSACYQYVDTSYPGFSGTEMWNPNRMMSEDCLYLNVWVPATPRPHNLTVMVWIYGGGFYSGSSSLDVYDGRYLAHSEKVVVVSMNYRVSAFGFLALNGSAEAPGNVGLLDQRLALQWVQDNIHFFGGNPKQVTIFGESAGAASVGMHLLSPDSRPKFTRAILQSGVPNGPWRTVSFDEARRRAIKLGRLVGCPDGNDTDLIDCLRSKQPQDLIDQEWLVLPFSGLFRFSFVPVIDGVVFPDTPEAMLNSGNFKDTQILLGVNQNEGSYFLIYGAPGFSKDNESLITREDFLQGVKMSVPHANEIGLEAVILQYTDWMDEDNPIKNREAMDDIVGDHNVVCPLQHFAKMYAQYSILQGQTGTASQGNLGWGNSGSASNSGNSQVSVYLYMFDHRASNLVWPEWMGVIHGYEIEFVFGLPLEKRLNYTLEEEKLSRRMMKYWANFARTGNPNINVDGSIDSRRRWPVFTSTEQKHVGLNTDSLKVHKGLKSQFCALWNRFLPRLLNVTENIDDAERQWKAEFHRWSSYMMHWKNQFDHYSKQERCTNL
Experimental: The recorded data were analyzed with the enzyme kinetic module of SigmaPlot. All measurements were replicated three times, and the IC50 value obtained was confirmed by repeating the experiment twice.
For this purpose, eight different inhibitor solutions were prepared. […] The recorded data were analyzed by the enzyme kinetic module of SigmaPlot plotting the percentages of inhibition as a function of the different concentrations of the inhibitor, expressed in logarithmic scale, to obtain the sigmoid graph, from which it was possible to determine the IC50 value of the tested compound. The IC50 was confirmed by repeating the experiment twice.

Compound | antioxidant activity (reaction with DPPH) [1] | reaction time (time for reaching the plateau) [1] [min] | cytotoxicity on U-87 MG cells ([2]; concentrations up to 10 μM) | IC50 [3] [nM] | cytotoxic effect on U-87 MG cells ([2]; 1 to 50 μM)
COc1cc(CNCCCCCCNc2ncccn2)ccc1O [Compound 18, 2-Methoxy-4-(((6-(pyrimidin-2-ylamino)hexyl)amino)methyl)phenol] | antioxidant properties; also recorded: showed antioxidant activity; also recorded: possess antioxidant activity | 90 | – | – | –
Oc1cccc(CNCCCCCCNc2ncccn2)c1 [Compound 19, 3-(((6-(Pyrimidin-2-ylamino)hexyl)amino)methyl)phenol] | did not show a significant ability to interact with DPPH; also recorded: no significant antioxidant capacity | – | – | – | –
Oc1cccc(CNCCCCCCNc2ncccn2)c1O [Compound 20, 3-(((6-(Pyrimidin-2-ylamino)hexyl)amino)methyl)benzene-1,2-diol] | antioxidant properties; also recorded: showed antioxidant activity; also recorded: possess antioxidant activity; also recorded: most efficient antioxidant | 1 | not cytotoxic | 622 | –
c1cnc(NCCCCCCNCc2c[nH]c3ccccc23)nc1 [Compound 22, N^1-((1H-Indol-3-yl)methyl)-N^6-(pyrimidin-2-yl)hexane-1,6-diamine] | – | – | – | – | more pronounced cytotoxic effect
COc1cc(CNCCCCCCNc2ccccn2)ccc1O [Compound 30, 2-Methoxy-4-(((6-(pyridin-2-ylamino)hexyl)amino)methyl)phenol] | antioxidant properties; also recorded: showed antioxidant activity; also recorded: possess antioxidant activity | 90 | – | – | –
